Source: ChEMBL document CHEMBL1201862, “PubChem BioAssay data set” (2004)
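Dose response: 5 concentrations. Exposure: 48 h. Format: 96-well plates. Endpoint: linear interpolation; highest concentration if not reached. The concentration for 50% growth inhibition is given as GI50.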 Activity calls are given as the source filed them. No stated cut-off is given here; in the data, active = GI50 up to about 1.1 µM and inactive = higher.

Assays:
Assay in all cases: NCI anticancer screen, dose series, 48 h
[1] = test system: BT-549
[2] = test system: M19-MEL
[3] = test system: DMS-114
[4] = test system: SNB-78
[5] = test system: XF498
[6] = test system: DLD-1
[7] = test system: LXFL 529
[8] = test system: HOP-18
[9] = test system: RXF 631

CC1(C)C=Cc2c(cc(O)c3c(=O)c4cc(Cl)ccc4[nH]c23)O1
GI50 [1]: 2.63 µM (inactive)

CC(=O)Oc1ccccc1C(=O)O [ASPIRIN]
GI50 [1]: > 100 µM (inactive)

Clc1cc2nc[nH]c2cc1Cl
GI50 [2]: > 100 µM (inactive)
GI50 [3]: > 100 µM (inactive)
GI50 [4]: > 100 µM (inactive)
GI50 [5]: 20.1 µM (inactive)
GI50 [6]: > 100 µM (inactive)
GI50 [7]: > 100 µM (inactive)
GI50 [8]: > 100 µM (inactive)

CCCCC(C(=O)CCC(=O)Nc1ccc(Cl)cc1)C(=O)C(C)C (centres undefined)
GI50 [2]: > 100 µM (inactive)
GI50 [3]: > 100 µM (inactive)
GI50 [4]: > 100 µM (inactive)
GI50 [5]: > 100 µM (inactive)
GI50 [6]: > 100 µM (inactive)
GI50 [7]: 92.7 µM (inactive)
GI50 [9]: > 100 µM (inactive)

COC(=O)[C@H](Cc1c[nH]c2ccccc12)NC(=O)c1ccccc1I
GI50 [1]: > 100 µM (inactive)

O=S1(=O)OCCOS(=O)(=O)C1I
GI50 [2]: > 100 µM (inactive)
GI50 [3]: > 100 µM (inactive)
GI50 [4]: > 100 µM (inactive)
GI50 [5]: > 100 µM (inactive)
GI50 [6]: > 100 µM (inactive)
GI50 [7]: > 100 µM (inactive)
GI50 [9]: > 100 µM (inactive)

CC(C)=CCc1c(O)c(CC=C(C)C)c2oc3c(c(=O)c2c1O)C(C=C(C)C)Oc1cc(O)ccc1-3 (centres undefined)
GI50 [1]: 12.2 µM (inactive)

Oc1ccc(/N=N/c2ccc(Cl)cc2)cc1
GI50 [1]: 15.1 µM (inactive)

O=C(c1cc(O)ccc1O)c1ccccc1C(Cl)(Cl)Cl
GI50 [2]: 90.8 µM (inactive)
GI50 [3]: 32 µM (inactive)
GI50 [4]: > 100 µM (inactive)
GI50 [5]: 34.9 µM (inactive)
GI50 [7]: 61.4 µM (inactive)
GI50 [8]: > 100 µM (inactive)

CCOC(=O)/C(=C\NC(C)(C)C)c1nc2ccccc2[nH]1
GI50 [1]: 27.9 µM (inactive)

COC(=O)C1=C(C)NC2(C)OC(C)(O)C(C(C)=O)C12C(C)=O (centres undefined)
GI50 [1]: 66.5 µM (inactive)

O=C1CNC(=O)/C(=C/c2c[nH]c3ccccc23)N1
GI50 [1]: > 100 µM (inactive)

CCOP(=O)(OCC)/C(F)=C/c1ccc(F)cc1
GI50 [1]: > 100 µM (inactive)

N#Cc1c(-c2ccc(Cl)cc2)cc(-c2ccc(Nc3ccnc4cc(Cl)ccc34)cc2)[nH]c1=O
GI50 [1]: 19.6 µM (inactive)

CCN(CC)CCCNc1ccc([N+](=O)[O-])c2nc3ccccc3c(N)c12
GI50 [1]: 1.4 µM (inactive)

COc1ccccc1NC(=O)O/N=C(/Cl)C(C)C
GI50 [1]: 3.48 µM (inactive)

CC1CC(=O)Nc2ccc(Cl)cc2N1C(=O)CN1CCC(CCCCN(C)C)CC1 (centres undefined)
GI50 [3]: > 100 µM (inactive)
GI50 [6]: > 100 µM (inactive)
GI50 [7]: > 100 µM (inactive)
GI50 [8]: > 100 µM (inactive)
GI50 [9]: > 100 µM (inactive)

O=C(O)CCSC(=O)Nc1ccccc1
GI50 [4]: > 100 µM (inactive)
GI50 [6]: > 100 µM (inactive)
GI50 [7]: 61.9 µM (inactive)

C=CCN1CCN([C@H](c2ccc(C(=O)N(CC)CC)cc2)c2cccc(OC)c2)CC1
GI50 [1]: > 25 µM (inactive)

COc1cc(-c2oc3c(OC)c(O)c(OC)c(O)c3c(=O)c2OC)cc(OC)c1OC
GI50 [1]: 71.8 µM (inactive)

Oc1cc(Br)cc2cc(Br)cnc12
GI50 [1]: 4.58 µM (inactive)

COc1cccc(NC(=O)CC(=O)N2N=C(N(CCC#N)c3ccc(Cl)cc3)CC2c2ccccc2)c1 (centres undefined)
GI50 [2]: > 100 µM (inactive)
GI50 [3]: > 100 µM (inactive)
GI50 [4]: > 100 µM (inactive)
GI50 [6]: > 100 µM (inactive)
GI50 [7]: > 100 µM (inactive)
GI50 [8]: > 100 µM (inactive)

C/C(=N\NC(N)=S)c1cccs1.OB(O)c1ccccc1
GI50 [1]: > 100 µM (inactive)

O=C(c1ccccc1)c1ccc2nc3n(c2c1)C(c1c(F)cccc1F)SC3 (centres undefined)
GI50 [1]: 17.3 µM (inactive)

CC(=O)O[C@H]1[C@@H](OC2CCCC2(c2ccccc2)c2ccccc2)O[N+]([O-])=C[C@@]12COCc1cc3c(cc12)OCO3 (some centres undefined)
GI50 [1]: 23 µM (inactive)

C[N+]12C=CC=C1C(N1CCCC1)c1scc(-c3ccccc3)c12 (centres undefined)
GI50 [1]: 4.25 µM (inactive)

CCN1CCC(O)(c2ccc(Oc3ccc(F)cc3)cc2)C(C(=O)c2ccc(Oc3ccc(F)cc3)cc2)C1 (centres undefined)
GI50 [1]: 15.7 µM (inactive)

Cc1ccc(-c2nc3ccccc3c(=O)n2NCC2(O)OCC(O)C(O)C2O)cc1 (centres undefined)
GI50 [2]: > 100 µM (inactive)
GI50 [3]: > 100 µM (inactive)
GI50 [4]: > 100 µM (inactive)
GI50 [7]: > 100 µM (inactive)

CN1[C@@H]2CCCC[C@H]2N(C)P1(=O)C(O)/C=C/c1ccccc1 (some centres undefined)
GI50 [1]: > 100 µM (inactive)

CCN(CC)CC(C(=O)Nc1c(C)cccc1C)/C(C)=N\NC(=S)NN (centres undefined)
GI50 [2]: > 100 µM (inactive)
GI50 [5]: > 100 µM (inactive)
GI50 [6]: > 100 µM (inactive)
GI50 [7]: > 100 µM (inactive)
GI50 [9]: > 100 µM (inactive)

COC(=O)c1c(OC)cccc1C(=O)O
GI50 [2]: > 100 µM (inactive)
GI50 [3]: > 100 µM (inactive)
GI50 [4]: > 100 µM (inactive)
GI50 [7]: > 100 µM (inactive)
GI50 [8]: > 100 µM (inactive)
GI50 [9]: > 100 µM (inactive)

O=C1NC(Cc2ccccc2)C(=O)N2CCCC12 (centres undefined)
GI50 [2]: > 100 µM (inactive)
GI50 [3]: > 100 µM (inactive)
GI50 [4]: > 100 µM (inactive)
GI50 [5]: > 100 µM (inactive)
GI50 [6]: > 100 µM (inactive)
GI50 [7]: > 100 µM (inactive)
GI50 [8]: > 100 µM (inactive)
